Earlier results, collected in paper PMC9405102, “Targeted Modification and Structure-Activity Study of GL-29, an Analogue of the Antimicrobial Peptide Palustrin-2ISb” (Antibiotics, 2022).

Legend:
[1] = system: Gram-positive and Gram-negative bacteria; set-up: method as in PMID 21193000; conditions: cited from earlier work
[2] = system: Staphylococcus aureus (S. aureus); set-up: method as in PMID 21911019; conditions: cited from earlier work
C. albicans = system: C. albicans; set-up: method as in PMID 21911019; conditions: at 100 μM; cited from earlier work
[3] = system: Escherichia coli (E. coli); set-up: method as in PMID 21911019; conditions: cited from earlier work
[4] = system: methicillin-resistant S. aureus (MRSA); set-up: method as in PMID 21911019; conditions: cited from earlier work

Row | Sequence | activity against Gram-positive and Gram-negative bacteria [1] | MIC [2] | activity against C. albicans (C. albicans) | MIC [3] | MIC [4]
1 | GKKLFVNVLDKIRCKVAGGC [palustrin-2ISb-des-C7-des-N9, literature analogue with one helical part of Pa2ISb-des-C7] | little activity |  |  |  | 
2 | GLWNSIKIAGKKLFVNVLDKIRCKVAGGCKTSPDVE [palustrin-2ISb, parent antimicrobial peptide of 36 residues isolated from Odorrana ishikawae] |  | 6.3 µM | no activity | 6.3 µM | 100 µM
